Test results: patent publication US11077090B2, “Compounds and compositions and uses thereof” (Sunovion Pharmaceuticals Inc., priority 2016, dated 2021)
Read-outs that look alike come from different tables or passages of the source.

Tested on: compound-treated mice
Experiment: Neuropharmacological assay (SmartCube): behavioral activity signature and minimal effective dose
Type: in vivo
Conditions: for minimal effective dose: Mus musculus, ip, MED = dose having 50% or more total activity; for AD: ADHD (probability of activity signature) / AG: analgesic (probability of activity signature) / AX: anxiolytic (probability of activity signature) / CE: cognitive enhancer (probability of activity signature) / DP: anti-depressant (probability of activity signature) / MS: mood stabilizer (probability of activity signature) / PS: anti-psychotic (probability of activity signature) / SD: sedative hypnotic (probability of activity signature) / UN: uncharacterized CNS activity (probability of activity signature): i.p. 15 min before test, most efficacious dose(s)
Outline: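 Video-recorded behavior is compared algorithmically against a reference-compound database, yielding class probabilities (best dose reported). Compounds given i.p. in NMP/PEG/propylene glycol 15 min pre-test at 3 doses; potency as MED, the dose (mpk, range usually 0.3–30) reaching ≥50% total activity.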

[1] = read-out: Potency: minimal effective dose (MED)
[2] = read-out: Potency: minimal effective dose (MED), binned

Row | SMILES | minimal effective dose [1] [mg/kg] | AD: ADHD (probability of activity signature) | AG: analgesic (probability of activity signature) | AX: anxiolytic (probability of activity signature) | CE: cognitive enhancer (probability of activity signature) | DP: anti-depressant (probability of activity signature) | MS: mood stabilizer (probability of activity signature) | PS: anti-psychotic (probability of activity signature) | SD: sedative hypnotic (probability of activity signature) | UN: uncharacterized CNS activity (probability of activity signature) | minimal effective dose [2] [mg/kg]
1 | Cl.NC1COCc2ccccc21 (stereo not drawn) [Example 12] | 10 to 30 | + (LOQ ≤ + <5%) | ++ (5% ≤ ++ <25%) | ++ (5% ≤ ++ <25%) | ++ (5% ≤ ++ <25%) | ++ (5% ≤ ++ <25%) | + (LOQ ≤ + <5%) | ++ (5% ≤ ++ <25%) | + (LOQ ≤ + <5%) | +++ (25% ≤ +++ <50%) | 
2 | Cl.NC1COCc2ccc(C(F)(F)F)cc21 (stereo not drawn) [Example 9, 6-Trifluoromethylisochroman-4-amine hydrochloride] | 3 to 10 | + (LOQ ≤ + <5%) | ++ (5% ≤ ++ <25%) | ++ (5% ≤ ++ <25%) | ++ (5% ≤ ++ <25%) | ++ (5% ≤ ++ <25%) | + (LOQ ≤ + <5%) | ++ (5% ≤ ++ <25%) | + (LOQ ≤ + <5%) | +++ (25% ≤ +++ <50%) | 
3 | C[C@@H]1OCc2ccc3ccccc3c2[C@@H]1N.Cl (single isomer, unassigned) [Example 91] | 10 to 30 | + (LOQ ≤ + <5%) | ++ (5% ≤ ++ <25%) | + (LOQ ≤ + <5%) | ++ (5% ≤ ++ <25%) | + (LOQ ≤ + <5%) | + (LOQ ≤ + <5%) | ++ (5% ≤ ++ <25%) | ++ (5% ≤ ++ <25%) | +++ (25% ≤ +++ <50%) | 
4 | Cc1ccc(Cl)c2c1[C@H](N)[C@@H](C)OC2.Cl [Example 200] |  | + (LOQ ≤ + <5%) | ++ (5% ≤ ++ <25%) | +++ (25% ≤ +++ <50%) | ++ (5% ≤ ++ <25%) | ++ (5% ≤ ++ <25%) | + (LOQ ≤ + <5%) | ++ (5% ≤ ++ <25%) | + (LOQ ≤ + <5%) | ++++ (50% ≤ ++++) | 3 to 10
5 | Cc1ccc2c(c1C)C(N(C)C)COC2.Cl (stereo not drawn) [Example 61] | 10 to 30 | + (LOQ ≤ + <5%) | ++ (5% ≤ ++ <25%) | ++ (5% ≤ ++ <25%) | ++ (5% ≤ ++ <25%) | + (LOQ ≤ + <5%) | + (LOQ ≤ + <5%) | ++ (5% ≤ ++ <25%) | + (LOQ ≤ + <5%) | ++++ (50% ≤ ++++) | 
6 | CC[C@H]1OCc2ccccc2[C@@H]1NC.Cl [Example 259] |  | + (LOQ ≤ + <5%) | + (LOQ ≤ + <5%) | + (LOQ ≤ + <5%) | + (LOQ ≤ + <5%) | ++ (5% ≤ ++ <25%) | + (LOQ ≤ + <5%) | + (LOQ ≤ + <5%) | +++ (25% ≤ +++ <50%) | ++ (5% ≤ ++ <25%) | 10 to 30
7 | COc1cccc2c1CO[C@@H](C)[C@H]2N.Cl [Example 234] |  | + (LOQ ≤ + <5%) | ++ (5% ≤ ++ <25%) | +++ (25% ≤ +++ <50%) | ++ (5% ≤ ++ <25%) | + (LOQ ≤ + <5%) | + (LOQ ≤ + <5%) | ++ (5% ≤ ++ <25%) | ++ (5% ≤ ++ <25%) | ++ (5% ≤ ++ <25%) | 10 to 30
8 | N[C@@H]1COCc2c(Cl)cccc21 [Example 131] | < 3 | + (LOQ ≤ + <5%) | + (LOQ ≤ + <5%) | ++ (5% ≤ ++ <25%) | +++ (25% ≤ +++ <50%) | ++ (5% ≤ ++ <25%) | ++ (5% ≤ ++ <25%) | ++ (5% ≤ ++ <25%) | ++ (5% ≤ ++ <25%) | +++ (25% ≤ +++ <50%) | 
9 | Cc1cccc2c1[C@H](N)COC2 (single isomer, unassigned) [Example 133] | < 3 | + (LOQ ≤ + <5%) | ++ (5% ≤ ++ <25%) | ++ (5% ≤ ++ <25%) | ++ (5% ≤ ++ <25%) | ++ (5% ≤ ++ <25%) | + (LOQ ≤ + <5%) | +++ (25% ≤ +++ <50%) | + (LOQ ≤ + <5%) | ++++ (50% ≤ ++++) | 
10 | Cc1ccc2c(c1)CO[C@H](C)[C@H]2N [Example 252] |  | + (LOQ ≤ + <5%) | + (LOQ ≤ + <5%) | + (LOQ ≤ + <5%) | + (LOQ ≤ + <5%) | ++ (5% ≤ ++ <25%) | ++ (5% ≤ ++ <25%) | ++ (5% ≤ ++ <25%) | ++ (5% ≤ ++ <25%) | ++++ (50% ≤ ++++) | < 3
11 | COc1ccc2c(c1)[C@@H](N)COC2 (single isomer, unassigned) [Example 122] | < 3 | + (LOQ ≤ + <5%) | ++ (5% ≤ ++ <25%) | +++ (25% ≤ +++ <50%) | +++ (25% ≤ +++ <50%) | ++ (5% ≤ ++ <25%) | + (LOQ ≤ + <5%) | ++ (5% ≤ ++ <25%) | ++ (5% ≤ ++ <25%) | +++ (25% ≤ +++ <50%) | 
12 | CC[C@@H]1OCc2ccc(C)cc2[C@@H]1N.Cl (relative stereo) [Example 100, cis-3-Ethyl-6-methylisochroman-4-amine hydrochloride] | < 3 | + (LOQ ≤ + <5%) | ++ (5% ≤ ++ <25%) | ++ (5% ≤ ++ <25%) | ++ (5% ≤ ++ <25%) | ++ (5% ≤ ++ <25%) | + (LOQ ≤ + <5%) | +++ (25% ≤ +++ <50%) | ++ (5% ≤ ++ <25%) | +++ (25% ≤ +++ <50%) | 
13 | CC[C@@H]1OCc2ccccc2[C@@H]1N (single isomer, unassigned) [Example 191] |  | + (LOQ ≤ + <5%) | ++ (5% ≤ ++ <25%) | ++ (5% ≤ ++ <25%) | ++ (5% ≤ ++ <25%) | ++ (5% ≤ ++ <25%) | + (LOQ ≤ + <5%) | ++ (5% ≤ ++ <25%) | ++ (5% ≤ ++ <25%) | ++++ (50% ≤ ++++) | < 3
14 | Cc1cccc2c1[C@@H](N)COC2 (single isomer, unassigned) [Example 134] | 3 to 10 | + (LOQ ≤ + <5%) | ++ (5% ≤ ++ <25%) | +++ (25% ≤ +++ <50%) | ++ (5% ≤ ++ <25%) | ++ (5% ≤ ++ <25%) | + (LOQ ≤ + <5%) | ++ (5% ≤ ++ <25%) | ++ (5% ≤ ++ <25%) | +++ (25% ≤ +++ <50%) | 
15 | Cc1cccc2c1[C@H](N)[C@@H](C)OC2 (single isomer, unassigned) [Example 167] |  | + (LOQ ≤ + <5%) | ++ (5% ≤ ++ <25%) | ++ (5% ≤ ++ <25%) | + (LOQ ≤ + <5%) | + (LOQ ≤ + <5%) | + (LOQ ≤ + <5%) | ++ (5% ≤ ++ <25%) | + (LOQ ≤ + <5%) | ++++ (50% ≤ ++++) | < 3
